Reference: ChEMBL document CHEMBL1201862, “PubChem BioAssay data set” (2004)
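These data come from cells grown in 96-well plates and exposed to compound for 48 hours at five concentrations. Abbreviation: GI50, concentration required for 50% inhibition of growth.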 Active and inactive are the calls of the source. Rule as the data show it: active = GI50 up to about 1.1 µM and inactive = higher. Square brackets hold non-standard residues; d marks the D form. Peptide text beside a SMILES is read from it. ξ: configuration not given here. ξ2Thi = NC(Cc1cccs1)C(=O)O; ξR = N=C(N)NCCCC(N)C(=O)O; ξI = CCC(C)C(N)C(=O)O; ξL = CC(C)CC(N)C(=O)O; ξK = NCCCCC(N)C(=O)O; ξT = CC(O)C(N)C(=O)O; ξA = CC(N)C(=O)O

Key:
Experiment in all cases: growth of human tumour cells (NCI), 48 h
786-0 = system: 786-0
ACHN = system: ACHN
CAKI-1 = system: CAKI-1
HL-60 = system: HL-60
K562 = system: K562
KM12 = system: KM12
LOX IMVI = system: LOX IMVI
MDA-MB-231 = system: MDA-MB-231
MDA-MB-435 = system: MDA-MB-435
NCI-H23 = system: NCI-H23
NCI-H522 = system: NCI-H522
OVCAR-3 = system: OVCAR-3
OVCAR-4 = system: OVCAR-4
SK-MEL-2 = system: SK-MEL-2
T47D = system: T47D
UACC-257 = system: UACC-257
UACC-62 = system: UACC-62
HCC 2998 = system: HCC 2998
MOLT-4 = system: MOLT-4

Row | SMILES | GI50 (786-0) | GI50 (ACHN) | GI50 (CAKI-1) | GI50 (HL-60) | GI50 (K562) | GI50 (KM12) | GI50 (LOX IMVI) | GI50 (MDA-MB-231) | GI50 (MDA-MB-435) | GI50 (NCI-H23) | GI50 (NCI-H522) | GI50 (OVCAR-3) | GI50 (OVCAR-4) | GI50 (SK-MEL-2) | GI50 (T47D) | GI50 (UACC-257) | GI50 (UACC-62) | GI50 (HCC 2998) | GI50 (MOLT-4)
1 | CC(C)(N)C(=O)N[C@@H]1C(=O)N2[C@@H]1SC(C)(C)[C@@H]2C(=O)O | > 100 µM (inactive) | > 100 µM (inactive) | > 100 µM (inactive) | < 0.01 µM (active) | > 100 µM (inactive) | > 100 µM (inactive) | > 100 µM (inactive) | > 100 µM (inactive) | > 100 µM (inactive) | > 100 µM (inactive) | > 100 µM (inactive) | > 100 µM (inactive) | > 100 µM (inactive) | > 100 µM (inactive) | > 100 µM (inactive) | > 100 µM (inactive) | > 100 µM (inactive) |  | 
2 | CCC(C)C(NC(=O)C(Cc1cccs1)NC(=O)C(CC(C)C)NC(=O)C(CC(C)C)NC(=O)C(CCCCN)NC(=O)C(CCCN=C(N)N)NC(=O)[C@H](Cc1ccc(O)cc1)NC(=O)C(NC(=O)C(C)NC(=O)C(N)CC(C)C)C(C)O)C(=O)NC(CC(C)C)C(N)=O (stereo partly drawn) (H-[ξL][ξA][ξT]Y[ξR][ξK][ξL][ξL][ξ2Thi][ξI][ξL]-NH2) | > 50 µM (inactive) | > 50 µM (inactive) | > 50 µM (inactive) |  | > 50 µM (inactive) | > 50 µM (inactive) | > 50 µM (inactive) | > 50 µM (inactive) | > 50 µM (inactive) | > 50 µM (inactive) | > 50 µM (inactive) | > 50 µM (inactive) | > 50 µM (inactive) |  | > 50 µM (inactive) | > 50 µM (inactive) | > 50 µM (inactive) | > 50 µM (inactive) | > 50 µM (inactive)
3 | O=C(O)c1cccc(SSc2cccc(C(=O)O)c2)c1 | > 100 µM (inactive) | > 100 µM (inactive) | > 100 µM (inactive) | > 100 µM (inactive) | > 100 µM (inactive) | > 100 µM (inactive) | > 100 µM (inactive) | > 100 µM (inactive) | > 100 µM (inactive) | > 100 µM (inactive) | 58.1 µM (inactive) | > 100 µM (inactive) | > 100 µM (inactive) | > 100 µM (inactive) | > 100 µM (inactive) | > 100 µM (inactive) | > 100 µM (inactive) |  | > 100 µM (inactive)
4 | N#Cc1ccc(-c2nc3cc(Cl)ccc3[nH]2)cc1 | > 100 µM (inactive) |  | 54.2 µM (inactive) | 13 µM (inactive) | 50.2 µM (inactive) | 25.3 µM (inactive) |  | > 100 µM (inactive) |  |  | 32.4 µM (inactive) | 54.7 µM (inactive) |  | > 100 µM (inactive) | 35.6 µM (inactive) |  |  | 38.1 µM (inactive) | 23.1 µM (inactive)
5 | CCOC(=O)c1nc2ccc(C(F)(F)F)cc2nc1Oc1ccc(OC)cc1 | > 100 µM (inactive) | > 100 µM (inactive) | 9.42 µM (inactive) |  | > 100 µM (inactive) | > 100 µM (inactive) | > 100 µM (inactive) | > 100 µM (inactive) | > 100 µM (inactive) |  |  | > 100 µM (inactive) | > 100 µM (inactive) | > 100 µM (inactive) | > 100 µM (inactive) | > 100 µM (inactive) | > 100 µM (inactive) |  | > 100 µM (inactive)
6 | Cc1ccc(NC(=O)c2cc3cc(/N=N/c4ccccc4C(=O)O)ccc3oc2=O)cc1 | 94.6 µM (inactive) | 53.2 µM (inactive) |  | 26.7 µM (inactive) | 39.2 µM (inactive) | 44.5 µM (inactive) | 35.2 µM (inactive) |  |  | 32.1 µM (inactive) | 30.1 µM (inactive) | 25.2 µM (inactive) |  |  |  | 20.3 µM (inactive) | 24.6 µM (inactive) |  | 32.2 µM (inactive)
7 | COc1ccc(N2C(=O)C(=O)C3(CCCCC3)C2=O)c(OC)c1OC | > 100 µM (inactive) | > 100 µM (inactive) | > 100 µM (inactive) | > 100 µM (inactive) |  | > 100 µM (inactive) | > 100 µM (inactive) |  | > 100 µM (inactive) | > 100 µM (inactive) | > 100 µM (inactive) | > 100 µM (inactive) | > 100 µM (inactive) |  | > 100 µM (inactive) | > 100 µM (inactive) | > 100 µM (inactive) |  | > 100 µM (inactive)
8 | OCC1CCCCCCCCCCC12SCCCS2 (stereo not drawn) | > 100 µM (inactive) | > 100 µM (inactive) | > 100 µM (inactive) | > 100 µM (inactive) | 48.2 µM (inactive) | > 100 µM (inactive) | > 100 µM (inactive) |  | > 100 µM (inactive) | > 100 µM (inactive) | > 100 µM (inactive) | > 100 µM (inactive) | > 100 µM (inactive) | > 100 µM (inactive) | 84.3 µM (inactive) |  | > 100 µM (inactive) |  | > 100 µM (inactive)
9 | O=c1c(NCc2ccccc2)c(C2(c3ccccc3F)SCCCS2)c1=O | > 100 µM (inactive) | > 100 µM (inactive) | > 100 µM (inactive) | 29.2 µM (inactive) |  | 46.1 µM (inactive) | > 100 µM (inactive) | > 100 µM (inactive) | 19.5 µM (inactive) | > 100 µM (inactive) | 23.7 µM (inactive) | > 100 µM (inactive) | > 100 µM (inactive) | > 100 µM (inactive) | > 100 µM (inactive) | > 100 µM (inactive) | 79.1 µM (inactive) |  | 54 µM (inactive)
10 | CCCCCCCCCCCCCCCC(=O)OCC1OC(n2cc(F)c(=O)[nH]c2=O)C(N)C(O)C1O (stereo not drawn) | 19.1 µM (inactive) | 18.8 µM (inactive) | 21 µM (inactive) | 19.5 µM (inactive) | 16.5 µM (inactive) | 18.6 µM (inactive) | 17.4 µM (inactive) |  |  | 19.7 µM (inactive) | 17.8 µM (inactive) | 2.19 µM (inactive) | 15.8 µM (inactive) |  |  | 20.2 µM (inactive) | 16.2 µM (inactive) | 14.5 µM (inactive) | 22.8 µM (inactive)
11 | Cc1cc(C)c2c(n1)S(=O)(=O)N(CCCN1CCN(c3cccc(Cl)c3)CC1)C(C(=O)c1ccc(Br)cc1)=C2O | 12.1 µM (inactive) | 27.3 µM (inactive) | 6.9 µM (inactive) | 14.3 µM (inactive) | 27.8 µM (inactive) | 24.7 µM (inactive) | 6.81 µM (inactive) | 37.7 µM (inactive) | 18.2 µM (inactive) | 33.5 µM (inactive) | 20.5 µM (inactive) | 16.8 µM (inactive) | 11.4 µM (inactive) | 20.5 µM (inactive) | 33.4 µM (inactive) | 15.3 µM (inactive) | 31.6 µM (inactive) |  | 10.6 µM (inactive)
12 | CS(=O)(=O)N1CC(CI)c2ccc(O)cc21 (stereo not drawn) | 3.24 µM (inactive) | 2.67 µM (inactive) | 1.96 µM (inactive) | 1.79 µM (inactive) | 2.66 µM (inactive) | 3.59 µM (inactive) | 3.21 µM (inactive) | 2.84 µM (inactive) | 1.89 µM (inactive) | 1.32 µM (inactive) | 1.15 µM (inactive) | 2.89 µM (inactive) | 1.96 µM (inactive) | 2.1 µM (inactive) |  | 3.36 µM (inactive) |  | 2.08 µM (inactive) | 0.809 µM (active)
13 | COc1ccc2c(c1)-c1c(c3cc(OC)ccc3n1CCN1CCOCC1)CC2 | 20.2 µM (inactive) | 29.4 µM (inactive) | 44.2 µM (inactive) |  | 13.2 µM (inactive) | 22.6 µM (inactive) |  | 34.4 µM (inactive) | 49.1 µM (inactive) | 52.1 µM (inactive) | 23.3 µM (inactive) | 46.1 µM (inactive) | 54 µM (inactive) | 55.2 µM (inactive) | 44.4 µM (inactive) | 33.4 µM (inactive) | 16.8 µM (inactive) | 1.76 µM (inactive) | 11.9 µM (inactive)
14 | O=C(c1ccccc1)c1ccc2[nH]c(-c3c(Cl)c(Cl)c(Cl)c(Cl)c3C(=O)N/N=C/c3ccccc3)nc2c1 | 26.1 µM (inactive) | 16.7 µM (inactive) | 34.1 µM (inactive) | 18.6 µM (inactive) | 27.7 µM (inactive) | 28.2 µM (inactive) | 26.4 µM (inactive) | 19.2 µM (inactive) | 9.25 µM (inactive) | 23 µM (inactive) | 18.1 µM (inactive) | 19.6 µM (inactive) | 16.4 µM (inactive) | 21.6 µM (inactive) | 14.7 µM (inactive) | 23.3 µM (inactive) |  |  | 11.2 µM (inactive)
15 | CCOC(=O)c1c(N)sc2c1C(C(=O)OCC)CCCC2 (stereo not drawn) | > 100 µM (inactive) | 83.6 µM (inactive) |  | 26.2 µM (inactive) | 52.8 µM (inactive) | > 100 µM (inactive) |  | 46.8 µM (inactive) |  | 62.1 µM (inactive) |  |  |  | 94.4 µM (inactive) | 22.5 µM (inactive) | 57.9 µM (inactive) | 78.3 µM (inactive) | 76.9 µM (inactive) | 29.6 µM (inactive)
16 | COC1=CC(=O)N(C(=O)C2CSC(C(CO)NC(=O)c3csc(/C=N/O)n3)=N2)C1 (stereo not drawn) | > 100 µM (inactive) | > 100 µM (inactive) | > 100 µM (inactive) | > 100 µM (inactive) | > 100 µM (inactive) | > 100 µM (inactive) | > 100 µM (inactive) | > 100 µM (inactive) | > 100 µM (inactive) | > 100 µM (inactive) |  | > 100 µM (inactive) |  | > 100 µM (inactive) |  | > 100 µM (inactive) | > 100 µM (inactive) |  | > 100 µM (inactive)
17 | CC(=O)Nc1ccc2nc(-c3cccc(Cl)c3)cc(O)c2c1 | 13.4 µM (inactive) | 64.6 µM (inactive) |  | 8.34 µM (inactive) |  | 4.83 µM (inactive) |  | 0.863 µM (active) | 2.35 µM (inactive) | 35.6 µM (inactive) | 3.1 µM (inactive) |  |  |  |  | > 100 µM (inactive) | 2.42 µM (inactive) | 8.38 µM (inactive) | 5.35 µM (inactive)
